Results as given in patent US4698352A, “4-oxo-1,4-dihydronicotinic acid derivatives, salts thereof, and antibacterial agents containing the same” (Toyama Chemical Co., Ltd., priority 1982, dated 1987).
Values after ≈ are worked out from the molar mass of the structure shown. Like-named read-outs stand apart in the source and are kept apart here.

Experiments:
Test in all cases: Antibacterial activity (MIC), agar dilution
Assay type in all cases: cell-based
Ps. aeruginosa GN918** = conditions: Pseudomonas aeruginosa, 20 h; Ps. aeruginosa GN918, cephalospolinase-producing; 10^6 cells per ml; read-out: MIC
Description: (§1) The amount of bacteria inoculated was 10^4 cells per plate (10^6 cells per ml).
(§2) ** Cephalospolinase-producing bacteria

E. coli GN5482** = conditions: Escherichia coli, 20 h; E. coli GN5482, cephalospolinase-producing; 10^6 cells per ml; read-out: MIC
Description: as §1, §2

Pro. vulgaris GN76** = conditions: Proteus vulgaris, 20 h; Pro. vulgaris GN76, cephalospolinase-producing; 10^6 cells per ml; read-out: MIC
Description: as §1, §2

Ps. aeruginosa IFO3445 = conditions: Pseudomonas aeruginosa; Ps. aeruginosa IFO3445; 10^6 cells per ml; 37° C., 20 hours; read-out: MIC
Description: as §1

Pro. morganii T-216 = conditions: Morganella morganii, 37° C.
Description: as §1

St. aureus FDA209P = conditions: Staphylococcus aureus, FDA209P, 20 h
Description: as §1

Pro. mirabilis T-111 = conditions: Proteus mirabilis, 37° C.
Description: as §1

Kl. pneumoniae Y-50 = conditions: Klebsiella pneumoniae, Y50, 20 h, 10^6 cells per ml, 37° C., read-out: MIC
Description: as §1

Kl. pneumoniae Y-41 = conditions: Klebsiella pneumoniae, Y41, 10^6 cells per ml, 37° C., 20 hours, read-out: MIC
Description: as §1

Ent. cloacae IID977 = conditions: Enterobacter cloacae, IID977, 20 h
Description: as §1

Aci. antitratus A-6 = conditions: 20 h, Aci. antitratus A-6; 10^6 cells per ml; 37° C., 20 hours; read-out: MIC
Description: as §1

E. coli TK-111 = conditions: Escherichia coli, TK111, 20 h, E. coli TK-111; 10^6 cells per ml; 37° C., 20 hours; read-out: MIC
Description: as §1

Pro. vulgaris GN3027 = conditions: Proteus vulgaris, GN3027, 20 h, Pro. vulgaris GN3027; 10^6 cells per ml; 37° C., 20 hours; read-out: MIC
Description: as §1

E. coli NIHJ JC-2 = conditions: Escherichia coli, NIHJJC2, 20 h
Description: as §1

Ps. aeruginosa S-68 = conditions: Pseudomonas aeruginosa
Description: as §1

St. aureus F-137* = conditions: Staphylococcus aureus, 20 h, St. aureus F-137, penicillinase-producing; 10^6 cells per ml; read-out: MIC
Description: as §1
(§3) * Penicillinase-producing bacteria

Ps. aeruginosa GN3379* = conditions: Pseudomonas aeruginosa, 20 h; Ps. aeruginosa GN3379, penicillinase-producing; 10^6 cells per ml; read-out: MIC
Description: as §1, §3

Kl. pneumoniae Y-4* = conditions: Klebsiella pneumoniae, 20 h, Kl. pneumoniae Y-4, penicillinase-producing; 10^6 cells per ml; read-out: MIC
Description: as §1, §3

E. coli TK-3* = conditions: Escherichia coli, 20 h, E. coli TK-3, penicillinase-producing; 10^6 cells per ml; read-out: MIC
Description: as §1, §3

[1] = T216, 10^6 cells per ml, 20 hours, read-out: MIC
[2] = St. aureus FDA209P, 10^6 cells per ml, 37° C., 20 hours, read-out: MIC
[3] = T111, 10^6 cells per ml, 20 hours, read-out: MIC
[4] = Ent. cloacae IID977, 10^6 cells per ml, 37° C., 20 hours, read-out: MIC
[5] = E. coli NIHJ JC-2, 10^6 cells per ml, 37° C., 20 hours, read-out: MIC
[6] = S68, Ps. aeruginosa S-68, 10^6 cells per ml, 37° C., 20 hours, read-out: MIC

With `CNc1ccc(-c2cc(=O)c(C(=O)O)cn2-c2ccc(F)cc2)cc1C` the MIC (Ps. aeruginosa GN918**) was 50 µg/mL (≈ 142 µM), the MIC (E. coli GN5482**) was 0.2 µg/mL (≈ 0.568 µM) and the MIC (Pro. vulgaris GN76**) was 3.13 µg/mL (≈ 8.88 µM). The MIC (Ps. aeruginosa IFO3445) was 50 µg/mL (≈ 142 µM), the MIC (Pro. morganii T-216; T216, 20 h, 10^6 cells per ml) was 6.25 µg/mL (≈ 17.7 µM) and the MIC (St. aureus FDA209P) was 1.56 µg/mL (≈ 4.43 µM). The MIC (Pro. mirabilis T-111; T111, 20 h, 10^6 cells per ml) was 12.5 µg/mL (≈ 35.5 µM), the MIC (Kl. pneumoniae Y-50) was 1.56 µg/mL (≈ 4.43 µM) and the MIC (Kl. pneumoniae Y-41) was 6.25 µg/mL (≈ 17.7 µM). It also gave an MIC (Ent. cloacae IID977) of 6.25 µg/mL (≈ 17.7 µM), an MIC (Aci. antitratus A-6) of 0.78 µg/mL (≈ 2.21 µM) and an MIC (E. coli TK-111) of 0.39 µg/mL (≈ 1.11 µM). It also gave an MIC (Pro. vulgaris GN3027) of 0.78 µg/mL (≈ 2.21 µM), an MIC (E. coli NIHJ JC-2) of 1.56 µg/mL (≈ 4.43 µM) and an MIC (Ps. aeruginosa S-68; S68, 20 h) of 12.5 µg/mL (≈ 35.5 µM). The MIC (St. aureus F-137*) was 0.78 µg/mL (≈ 2.21 µM), the MIC (Ps. aeruginosa GN3379*) was 25 µg/mL (≈ 70.9 µM) and the MIC (Kl. pneumoniae Y-4*) was 12.5 µg/mL (≈ 35.5 µM). The MIC (E. coli TK-3*) was 3.13 µg/mL (≈ 8.88 µM).

Compound `COc1ccc(-c2cc(=O)c(C(=O)O)cn2-c2ccc(O)cc2C)cc1` has an MIC (Ps. aeruginosa GN918**) of 1.56 µg/mL (≈ 4.44 µM), an MIC (E. coli GN5482**) of at most 0.05 µg/mL and an MIC (Pro. vulgaris GN76**) of 0.39 µg/mL (≈ 1.11 µM). It also gave an MIC (Ps. aeruginosa IFO3445) of 3.13 µg/mL (≈ 8.91 µM), an MIC (Pro. morganii T-216; [1]) of 1.56 µg/mL (≈ 4.44 µM) and an MIC (St. aureus FDA209P; [2]) of 0.1 µg/mL (≈ 0.285 µM). It also gave an MIC (Pro. mirabilis T-111; [3]) of 1.56 µg/mL (≈ 4.44 µM), an MIC (Kl. pneumoniae Y-50) of 0.1 µg/mL (≈ 0.285 µM) and an MIC (Kl. pneumoniae Y-41) of 0.78 µg/mL (≈ 2.22 µM). It also gave an MIC (Ent. cloacae IID977; [4]) of 0.39 µg/mL (≈ 1.11 µM), an MIC (Aci. antitratus A-6) of 0.2 µg/mL (≈ 0.569 µM) and an MIC (E. coli TK-111) of 0.05 µg/mL (≈ 0.142 µM). It also gave an MIC (Pro. vulgaris GN3027) of at most 0.05 µg/mL, an MIC (E. coli NIHJ JC-2; [5]) of 0.1 µg/mL (≈ 0.285 µM) and an MIC (Ps. aeruginosa S-68; [6]) of 3.13 µg/mL (≈ 8.91 µM). For the same compound, the MIC (St. aureus F-137*) was 0.1 µg/mL (≈ 0.285 µM), the MIC (Ps. aeruginosa GN3379*) was 12.5 µg/mL (≈ 35.6 µM) and the MIC (Kl. pneumoniae Y-4*) was 0.78 µg/mL (≈ 2.22 µM). It also gave an MIC (E. coli TK-3*) of 0.2 µg/mL (≈ 0.569 µM).

`Cn1ccc2cc(-c3cc(=O)c(C(=O)O)cn3-c3ccc(O)cc3)ccc21` showed an MIC (Ps. aeruginosa GN918**) of 0.78 µg/mL (≈ 2.16 µM), an MIC (E. coli GN5482**) of at most 0.05 µg/mL and an MIC (Pro. vulgaris GN76**) of 0.39 µg/mL (≈ 1.08 µM). It also gave an MIC (Ps. aeruginosa IFO3445) of 3.13 µg/mL (≈ 8.69 µM), an MIC (Pro. morganii T-216; [1]) of 0.39 µg/mL (≈ 1.08 µM) and an MIC (St. aureus FDA209P; [2]) of at most 0.05 µg/mL. It also gave an MIC (Pro. mirabilis T-111; [3]) of 0.78 µg/mL (≈ 2.16 µM), an MIC (Kl. pneumoniae Y-50) of 0.2 µg/mL (≈ 0.555 µM) and an MIC (Kl. pneumoniae Y-41) of 0.78 µg/mL (≈ 2.16 µM). For the same compound, the MIC (Ent. cloacae IID977; [4]) was 0.39 µg/mL (≈ 1.08 µM), the MIC (Aci. antitratus A-6) was 0.1 µg/mL (≈ 0.277 µM) and the MIC (E. coli TK-111) was at most 0.05 µg/mL. The MIC (Pro. vulgaris GN3027) was 0.1 µg/mL (≈ 0.277 µM), the MIC (E. coli NIHJ JC-2; [5]) was 0.1 µg/mL (≈ 0.277 µM) and the MIC (Ps. aeruginosa S-68; [6]) was 3.13 µg/mL (≈ 8.69 µM). It also gave an MIC (St. aureus F-137*) of at most 0.05 µg/mL, an MIC (Ps. aeruginosa GN3379*) of 3.13 µg/mL (≈ 8.69 µM) and an MIC (Kl. pneumoniae Y-4*) of 0.78 µg/mL (≈ 2.16 µM). It also gave an MIC (E. coli TK-3*) of 0.39 µg/mL (≈ 1.08 µM).

`Cc1nc(-c2ccc(-c3cc(=O)c(C(=O)O)cn3-c3ccc(O)cc3C)cc2)cs1` was tested, and the MIC (Ps. aeruginosa GN918**) was 0.39 µg/mL (≈ 0.932 µM), the MIC (E. coli GN5482**) was at most 0.05 µg/mL and the MIC (Pro. vulgaris GN76**) was 0.39 µg/mL (≈ 0.932 µM). The MIC (Ps. aeruginosa IFO3445) was 3.13 µg/mL (≈ 7.48 µM), the MIC (Pro. morganii T-216; T216, 20 h, 10^6 cells per ml) was 1.56 µg/mL (≈ 3.73 µM) and the MIC (St. aureus FDA209P; [2]) was at most 0.05 µg/mL. For the same compound, the MIC (Pro. mirabilis T-111; [3]) was 0.78 µg/mL (≈ 1.86 µM), the MIC (Kl. pneumoniae Y-50) was 0.2 µg/mL (≈ 0.478 µM) and the MIC (Kl. pneumoniae Y-41) was 1.56 µg/mL (≈ 3.73 µM). It also gave an MIC (Ent. cloacae IID977; [4]) of 0.39 µg/mL (≈ 0.932 µM), an MIC (Aci. antitratus A-6) of at most 0.05 µg/mL and an MIC (E. coli TK-111) of at most 0.05 µg/mL. The MIC (Pro. vulgaris GN3027) was 0.39 µg/mL (≈ 0.932 µM), the MIC (E. coli NIHJ JC-2; [5]) was 0.1 µg/mL (≈ 0.239 µM) and the MIC (Ps. aeruginosa S-68; [6]) was 3.13 µg/mL (≈ 7.48 µM). The MIC (St. aureus F-137*) was at most 0.05 µg/mL, the MIC (Ps. aeruginosa GN3379*) was 6.25 µg/mL (≈ 14.9 µM) and the MIC (Kl. pneumoniae Y-4*) was 1.56 µg/mL (≈ 3.73 µM). It also gave an MIC (E. coli TK-3*) of 0.39 µg/mL (≈ 0.932 µM).

For `Cc1ccc(-c2cc(=O)c(C(=O)O)cn2-c2ccc(O)cc2)s1`, the MIC (Ps. aeruginosa GN918**) was 0.78 µg/mL (≈ 2.38 µM), the MIC (E. coli GN5482**) was at most 0.05 µg/mL and the MIC (Pro. vulgaris GN76**) was 0.2 µg/mL (≈ 0.611 µM). The MIC (Ps. aeruginosa IFO3445) was 3.13 µg/mL (≈ 9.56 µM), the MIC (Pro. morganii T-216; [1]) was 0.39 µg/mL (≈ 1.19 µM) and the MIC (St. aureus FDA209P; [2]) was 0.2 µg/mL (≈ 0.611 µM). It also gave an MIC (Pro. mirabilis T-111; [3]) of 3.13 µg/mL (≈ 9.56 µM), an MIC (Kl. pneumoniae Y-50) of 0.2 µg/mL (≈ 0.611 µM) and an MIC (Kl. pneumoniae Y-41) of 0.78 µg/mL (≈ 2.38 µM). For the same compound, the MIC (Ent. cloacae IID977; [4]) was 0.78 µg/mL (≈ 2.38 µM), the MIC (Aci. antitratus A-6) was 0.39 µg/mL (≈ 1.19 µM) and the MIC (E. coli TK-111) was at most 0.05 µg/mL. It also gave an MIC (Pro. vulgaris GN3027) of at most 0.05 µg/mL, an MIC (E. coli NIHJ JC-2; [5]) of 0.2 µg/mL (≈ 0.611 µM) and an MIC (Ps. aeruginosa S-68; [6]) of 3.13 µg/mL (≈ 9.56 µM). The MIC (St. aureus F-137*) was 0.2 µg/mL (≈ 0.611 µM), the MIC (Ps. aeruginosa GN3379*) was 3.13 µg/mL (≈ 9.56 µM) and the MIC (Kl. pneumoniae Y-4*) was 1.56 µg/mL (≈ 4.77 µM). For the same compound, the MIC (E. coli TK-3*) was 0.2 µg/mL (≈ 0.611 µM).
